Calls of active or inactive are those of the source. The rule behind the calls is not given here.

For assay [1], the target named is T1, Adenylate cyclase (Rattus norvegicus) (UniProt D4A3N4+P26770+Q04400+P26769+Q03343+P40146+Q8CFM9+P21932). The assay can be described thus: Inhibition of dopamine-induced adenylate cyclase activation in rat striatal homogenate assessed as enzyme activity at 100 uM after 2.5 mins relative to control. On the set-up: scale not given: the % may be the effect or the level left.

The target of assay [2] is T1, Adenylate cyclase (Rattus norvegicus). The assay can be described thus: Activation of rat striatal homogenate adenylate cyclase assessed as cAMP level at 10 uM after 2.5 mins relative to control.
The next assay has as its system Canis familiaris. Nature of the assay: Induction of vasodilation in intraarterially dosed anesthetized Mongrel dog at 3 umol. In kind it is functional, organism-based. As to conditions: Canis lupus familiaris.
The target in assay [3] is T1, Adenylate cyclase (Rattus norvegicus). The assay can be described thus: Activation of rat striatal homogenate adenylate cyclase assessed as cAMP level at 100 uM after 2.5 mins relative to control. (In general: Changes in cAMP serve as a functional read-out for many G protein-coupled receptors.)

Consider `NC1Cc2cc(O)c(O)cc2-c2ccccc21` (stereo not given), for which the values for the Activity in assay [1], in assay [2] and in assay [3] were 149%, 100% and 92%, respectively. Further, the outcome in the assay on Canis familiaris was inactive.

Consider `NCCc1ccc(O)c(O)c1`, for which, in assay [3], the Activity turned out to be 150%.

The record behind these values is ChEMBL document CHEMBL3244190, “2,3-Dihydroxy-9-amino-9,10-dihydrophenanthrene, a rigid congener of dopamine and isoapomorphine” (J Med Chem, 1978).
